Laboratory results published in US20080044491A1, “METAL-CONTAINING FORMULATIONS AND METHODS OF USE” (priority 2006, published 2008).
“And” between values parts separate entries of the source, which are not always exact repeats. Equal values may be shown once. “Also recorded” adds a separate entry of the source.

Experiments:
Staphylococcus aureus = assay: MIC assay (microdilution); format: cell-based
[1] = test system: Staphylococcus epidermidis; assay: MIC assay (microdilution); format: cell-based
Streptococcus pyogenes = assay: MIC assay (microdilution); format: cell-based; conditions: lactate solutions, nanocrystalline silver = range for 12 samples
Streptococcus pneumoniae = assay: MIC assay (microdilution); format: cell-based; conditions: lactate solutions, nanocrystalline silver = range for 12 samples
Pseudomonas aeruginosa = assay: MIC assay (microdilution); format: cell-based
Klebsiella pneumoniae = assay: MIC assay (microdilution); format: cell-based; conditions: K. pneumoniae NP403 (listed twice)
Serratia marcescens = assay: MIC assay (microdilution); format: cell-based
Escherichia coli = assay: MIC assay (microdilution); format: cell-based
Shigella flexneri = assay: MIC assay (microdilution); format: cell-based; conditions: Shigella flexneri ATCC 12022
[2] = test system: Mycobacterium tuberculosis H37Ra (ATCC 25177); format: cell-based
Staph. aureus = assay: Minimal bactericidal concentration (MBC) assay; format: cell-based, Staphylococcus aureus
Procedure: (§1) Minimal bactericidal concentration (MBC) assay—Overnight-grown MIC plates, prepared as described in Example 16, were evaluated to determine the MIC. Culture was then sampled from wells at and near the MIC using sterile inoculating loops, and transferred to fresh MHA plates to determine if viable bacteria remained. […] The MBC was determined as the well in the MIC plate which contained the lowest concentration of silver yielding no bacterial growth on the MHA plate.

Ps. aeruginosa = assay: Minimal bactericidal concentration (MBC) assay; format: cell-based, Pseudomonas aeruginosa; conditions: Ps. aeruginosa 27317 (ATCC type strain)
Procedure: as §1

K. pneumoniae = assay: Minimal bactericidal concentration (MBC) assay; format: cell-based, Klebsiella pneumoniae; conditions: K. pneumoniae NP403 (listed twice)
Procedure: as §1

Ser. marcescens = assay: Minimal bactericidal concentration (MBC) assay; format: cell-based, Serratia marcescens
Procedure: as §1

E. coli = assay: Minimal bactericidal concentration (MBC) assay; format: cell-based, Escherichia coli
Procedure: as §1

Staph epidermidis = assay: Minimal bactericidal concentration (MBC) assay; format: cell-based, Staphylococcus epidermidis; conditions: Staph epidermidis 12228 (ATCC type strain)
Procedure: as §1

DNBS-induced colitis [3] = assay: DNBS-induced colitis in rat: total IBD score; format: in vivo; conditions: 100 mg/kg, five days; for total IBD score vs placebo: intracolonic
Procedure: Sulfasalazine (Sigma Chemicals, St Louis, Mo.), at a concentration of 120 mg/ml for intracolonic treatment and 30 mg/ml for oral treatment was used as the reference drug in all the experiments. Sulfasalazine was first dissolved in 0.1M NaOH at a concentration about 30-fold higher than the required final concentration, and then suspended in 1.5% PVA for oral dosing and 5.7% PVA for intracolonic dosing.
One group was not treated and served as no treatment group. Treatment began one day after administration of DNBS.
Macroscopic Observations: Body weight was recorded daily and the animals were examined for their physical appearance. After five days of treatment, animals were sacrificed. The colon was excised between the ileocecal junction and rectum, and opened longitudinally. After scoring of the consistency of the stool the colon was rinsed in normal saline, examined and thickness of the colonic wall and number and size of ulcers were scored. Stool consistency was graded on a scale of 0-3: 0=normal stool, well formed pellets rigid as normal; 1=loose stool, formed pellet with moisture, soft stool keeping in stool shape; 2=loose stool, stools that have abnormal form with much moisture, softer shapeless stool; 3=watery or bloody diarrhea.
Thickness of colonic wall was graded on a scale of 0-4: 0=normal, no thickness; 1=mild thickness in lower portion of the colon; 2=moderate thickness in localized area; 3=moderate thickness extending to the central portion of the colon; 4=severe thickness in the whole colon. Colonic ulceration was graded on a scale of 0-10: 0=no ulcers; 1=one small ulcer less than 2-3 mm; 2=one large ulcer more than 2-3 mm; 3=two large ulcerations more than 2-3 mm in diameter; 4=two or more sites of ulcerations extending 1 cm along the length; 5-10=when an area of ulceration extended more than 1 cm along the length of the colon, the score increases by 1 for each additional cm of involvement. The total IBD score, obtained by the sum of the scores of colonic ulcer, colon thickness and stool consistency for each animal, was calculated for each treatment group.
Statistical Analysis: The results are expressed as the mean ±SE. The statistical significance in the mean total IBD score, histopathological inflammation score, and the immunohistochemical staining of cytokines or MMP-9 was determined using Tukey-Kramer's multiple comparison tests following one-way analysis of variance (ANOVA). The data were calculated with the aid of Instat Graph Pad Software. Differences with a P value less than 0.05 were considered significant.
Methods: Colitis was induced in rats using DNBS as described in Example 25. Animals were treated intracolonically (250 μl of the test reagents) once a day for five days. […] Methods: Colitis was induced in rats using DNBS as described in Example 25. Animals were treated intracolonically (250 μl of the test reagents) once a day for five days.

[4] = DNBS-induced colitis in rat: body weight change; format: in vivo; conditions: rats with DNBS-induced colitis (FIGS. 10, 11)
Description: Animals: Male Sprague-Dawley rats, weighing approximately 250-300 gm were purchased from Charles River Laboratories (Raleigh, N.C.). The animals were housed under standard conditions with free access to food and water. They were acclimatized for 2-3 days before commencing the experiments. The study protocol was approved by the Institutional Animal Care and Use Committees (IACUC).
Induction of ulcerative colitis: Colitis was produced according to published methods. Animals were anesthetized by intraperitoneal injection of 75 mg/kg of ketamine plus 5 mg/kg of xylazine. A single intracolonic injection of 120 mg/ml of dinitrobenzenesulfonic acid (DNBS) (Sigma Chemicals, St. Louis, Mo.) in 250 micro liter of 50% ethanol was administered through a Tom Cat catheter (Kendall Sovereign, Mansfield, Mass.) with a closed-end tip, connected to a 1 ml syringe and placed 7 cm proximal to the anus. Lubricant was applied to the tip of the catheter before injection, to protect from mucosal injury. After instillation of DNBS, 0.5 ml of air was insufflated and the catheter was removed. […]
Macroscopic Observations: Body weight was recorded daily and the animals were examined for their physical appearance. […] After scoring of the consistency of the stool the colon was rinsed in normal saline, examined and thickness of the colonic wall and number and size of ulcers were scored. […]

DNBS-induced colitis [5] = assay: DNBS-induced colitis in rat: histopathological inflammation score of colon; format: in vivo; conditions: oral, 100 mg/kg, five days
Procedure: Histopathology: A piece of colonic tissue at 2-4 cm proximal to the anus was excised and fixed in 10% formalin and the sections were stained with hematoxylin and eosin. The remaining length of the colonic tissues was stored at −80° C. for subsequent biochemical assays. The histology slides were examined by a veterinary pathologist who was blinded to the treatment groups. The extent of microscopic mucosal damage of the colon was scored on scale of 0-5 as described with slight modification: 0=normal histological appearance; 1=histological damage limited to surface epithelium, mild infiltration of the submucosa; 2=focal ulceration and cell disruption limited to mucosa, abnormal appearance of colonic wall, mild infiltration of inflammatory cells; 3=focal, transmural inflammation and ulceration, with mild to moderate infiltration of inflammatory cells; 4=Extensive transmural ulceration and inflammation bordered by areas of normal mucosa, moderate infiltration of inflammatory cells; 5=extensive transmural ulceration and inflammation involving entire section from epithelium to serosa, severe infiltration of inflammatory cells.
Statistical Analysis: The results are expressed as the mean ±SE. […] The data were calculated with the aid of Instat Graph Pad Software. […]

IL-1β = assay: Immunohistochemical staining of colonic tissue; format: in vivo, rat; conditions: DNBS colitis, five days oral treatment
Procedure: (§2) Immunohistochemistry: A Universal Streptavidin/Biotin detection system (Thermo Shandon, Pittsburgh, Pa.) was used for immunohistochemical staining of formalin fixed, paraffin embedded biopsies of the colon. After dewaxing, and hydration, sections were treated with protein blocking agent to reduce non-specific binding of antibodies. The tissues were then incubated with rabbit anti-rat TNF-α, or mouse anti-rat IL-12 p70 antibodies (Biosource International, Inc, Camarillo, Calif.); rabbit anti-rat IL-1β (Serotec, Raleigh, N.C.) or rabbit anti-rat MMP-9 antibody (Chemicon International, Telecuma, Calif.) in 1% bovine serum albumin in phosphate buffered saline. Incubations with secondary antibodies, streptavidin/biotin, and chromogenic detection of peroxidase were performed according to the manufacturer's protocol. Sections were counterstained, dehydrated, mounted and examined. The intensity of the immuno-peroxidase staining was graded as described previously. Expression of cytokines was graded as: 0, no staining in the section; 1, less than 25% of the section; 2, 25-50% of the section; 3, 50-75% of the section; 4, >75% of the section with significant staining.

MMP-9 [6] = assay: Immunohistochemical staining of colonic tissue; format: in vivo, rat; conditions: vs placebo and no treatment (FIG. 19)
Procedure: as §2

TNF-α = assay: Immunohistochemical staining of colonic tissue; format: in vivo, rat; conditions: DNBS colitis, five days oral treatment
Procedure: as §2

MMP-9 [7] = assay: Gelatin zymography of colonic homogenates; format: in vivo, rat; conditions: oral 100 mg/kg
Procedure: Gelatin Zymography: Activities of MMP-9 and MMP-2 in colonic tissue homogenates were determined by gelatin zymography as described previously. Briefly, colonic homogenates were mixed with equal volume of zymograph sample buffer. Samples were loaded on a 10% SDS-polyacrylamide gel containing 0.1% gelatin. After electrophoresis, the SDS was removed from the gel by incubation with renaturing buffer containing 2% Triton-X-100 for 1 hour. The gel was incubated overnight in developing buffer containing 50 mM Tris-HCl, pH 7.8, 5 mM CaCl2, 0.2 M NaCl, 0.02% Brij-35. The gel was subsequently stained with Coumassie blue for 30 minutes and destained with destaining solution containing 8% acetic acid and 4% methanol. Gelatinolytic activity was determined as transparent bands against the blue background of stained gelatin. MMPs were identified by their molecular weight compared with the standards. Absence of a transparent band on the gel was evidenced as no MMP-9 or MMP-2 activity of the sample tested.

[8] = Staph. aureus 6538 (ATCC type strain)
[9] = Staph. aureus 700699 (ATCC type strain)
[10] = Ser. marcescens NP402 (listed twice)
[11] = Ser. marcescens NP408 (listed twice)
[12] = E. coli 8739 (ATCC type strain)
[13] = E. coli 43745 (ATCC type strain)

`O=[N+]([O-])[O-].[Ag+]` [AgNO3, silver nitrate] showed an MIC (Staphylococcus aureus; S. aureus (ATCC), lactate solutions, nanocrystalline silver = range for 12 samples) of 11 µg/mL, an MIC (Staphylococcus aureus; S. aureus (clin.), lactate solutions, nanocrystalline silver = range for 12 samples) of 5 µg/mL and an MIC (Staphylococcus aureus; [8]) of 6 parts silver per million. It also gave an MIC (Staphylococcus aureus; [9]) of 3 parts silver per million, an MIC ([1]; S. epiderm (ATCC), lactate solutions, nanocrystalline silver = range for 12 samples) of 3 µg/mL and an MIC ([1]; Staph epidermidis 12228 (ATCC type strain)) of 3 parts silver per million. For the same compound, the MIC (Streptococcus pyogenes; S. pyog (clin. 303)) was 3 µg/mL, the MIC (Streptococcus pyogenes; S. pyog (clin. 304)) was 5 µg/mL and the MIC (Streptococcus pneumoniae; S. pneumo (clin 314)) was 11 µg/mL. It also gave an MIC (Streptococcus pneumoniae; S. pneumo (clin 315)) of 21 µg/mL, an MIC (Pseudomonas aeruginosa; P. aerug (ATCC), lactate solutions, nanocrystalline silver = range for 12 samples) of 3 µg/mL and an MIC (Pseudomonas aeruginosa; P. aerug. (clin.), lactate solutions, nanocrystalline silver = range for 12 samples) of 3 µg/mL. It also gave an MIC (Pseudomonas aeruginosa; P. aeruginosa isolate NP212, formulation type Lactate) of 2 ppm, an MIC (Pseudomonas aeruginosa; P. aeruginosa isolate NP212, formulation type Water/Lecithin) of 3 ppm and an MIC (Pseudomonas aeruginosa; P. aeruginosa isolate NP212, formulation type Water/PVA) of 3 ppm. The MIC (Pseudomonas aeruginosa; Ps. aeruginosa 9027 (ATCC type strain)) was 1 parts silver per million, the MIC (Pseudomonas aeruginosa; Ps. aeruginosa 27317 (ATCC type strain)) was 2 parts silver per million and the MIC (Klebsiella pneumoniae) was 6 parts silver per million. For the same compound, the MIC (Serratia marcescens; [10]) was 6 parts silver per million, the MIC (Serratia marcescens; [11]) was 6 parts silver per million and 11 parts silver per million and the MIC (Escherichia coli; [12]) was 0.4 parts silver per million. The MIC (Escherichia coli; [13]) was 1 parts silver per million, the MIC (Escherichia coli; E. coli (ATCC), lactate solutions, nanocrystalline silver = range for 12 samples) was 3 µg/mL and the MIC (Shigella flexneri; formulation type Lactate) was 2 ppm. For the same compound, the MIC (Shigella flexneri; formulation type Water/Lecithin) was 2 ppm, the MIC (Shigella flexneri; formulation type Water/PVA) was 1 ppm and the “minimum inhibitory concentration (MIC)” value [2] was 2.5 μg/ml silver. It also gave an MBC (Staph. aureus; [8]) of 6 parts silver per million, an MBC (Staph. aureus; [9]) of 6 parts silver per million and an MBC (Ps. aeruginosa) of 3 parts silver per million. The MBC (K. pneumoniae) was 6 parts silver per million and 3 parts silver per million, the MBC (Ser. marcescens; [10]) was 6 parts silver per million and the MBC (Ser. marcescens; [11]) was 6 parts silver per million and 11 parts silver per million. The MBC (E. coli; [12]) was 0.4 parts silver per million, the MBC (E. coli; [13]) was 0.4 parts silver per million and the MBC (Staph epidermidis) was 3 parts silver per million.
For `O=C(O)c1cc(/N=N/c2ccc(S(=O)(=O)Nc3ccccn3)cc2)ccc1O` [sulfasalazine, salicylazosulfapyridine], the “total IBD score vs placebo” value (DNBS-induced colitis [3]) was “Significant reduction; also recorded: significantly reduced total IBD score”, the “total IBD score vs placebo” value (DNBS-induced colitis [3]; listed as Sulfasalazine) was “significantly reduced total IBD score” and the “total IBD score” value (DNBS-induced colitis [3]; oral) was “significant reduction”. The body weight change [4] was “started gaining body weight after one day of treatment”, the “histopathological inflammation vs placebo and untreated” value (DNBS-induced colitis [5]) was “significantly reduced” and the “expression of IL-1β (immunohistochemical staining)” value (IL-1β) was “significantly reduced the expression”. For the same compound, the “expression of MMP-9 (immunohistochemical staining)” value (MMP-9 [6]) was “significantly reduced the expression”, the “expression of TNF-α (immunohistochemical staining)” value (TNF-α) was “significantly reduced the expression” and the “MMP-9 activity (gelatin zymography)” value (MMP-9 [7]) was “reduced MMP-9 activity”.
